For the experiment, the system named is Brewer's yeast-induced hyperalgesia (pain response). Put plainly: Brewer's Yeast Hyperalgesia Assay in the rat. Type of experiment: in vivo, rat (female Sprague-Dawley). The settings on record: 3 mg/kg p.o. As for the experimental part: In this assay, which is sensitive to inhibition by lipoxygenase and cyclooxygenase inhibitors, compounds of formula I reduced the pain response induced by Brewer's yeast (Table 1a).
Groups of 10 female Sprague-Dawley rats, weighing 35-50 grams (Charles River Breeding Laboratories), were fasted overnight prior to testing. For each animal, 0.1 ml of the edema-inducing Brewer's yeast suspension (5% homogenate in physiological saline) was injected into the right hindpaw. Pain threshold was measured by applying pressure to the plantar surface of the hindpaw by means of a compressed air driven piston with a 2 mm. tip. Testing was carried out 3, 4, and 5 hours after the yeast injection. Compounds, prepared as homogenates in either 1% methylcellulose or aqueous vehicle, were administered orally 60 minutes before testing. A group of vehicle treated control animals was included in each experiment. Squeak pressure thresholds were measured and recorded for the compound and vehicle-treated groups of rats 3, 4, and 5 hours after administration of the Brewer's yeast (60 minutes after compound treatment). The estimation of analgesia was as follows: 1. the mean response pressure for the daily vehicle control group in the normal and inflammed foot was calculated; 2. for each compound treatment group, the number of animals with response pressures equal to or greater than 25 mm Hg was noted. These animals were considered to be analgesic.
Consider `COCC(=O)Oc1c(-c2ccccc2)sc2ncccc12` [R=(CO)CH2 OCH3, X1=H, X2=H], for which the “% Inhibition (yeast hyperalgesia)” value came to 50%.

As for `CC(=O)Oc1c(-c2ccccc2)sc2nc(Cl)ccc12` [R=(CO)CH3, X1=6-Cl, X2=H], the “% Inhibition (yeast hyperalgesia)” value was found to be 40%.

For `COc1ccc2c(OC(C)=O)c(-c3ccccc3)sc2n1` [R=(CO)CH3, X1=6-OCH3, X2=H], the “% Inhibition (yeast hyperalgesia)” value was determined as 60%.

`CC(=O)Oc1c(-c2ccccc2)sc2ncccc12` [R=(CO)CH3, X1=H, X2=H, 7-aza-3-acetyloxy-2-phenyl-benzo[b]thiophene]: the “% Inhibition (yeast hyperalgesia)” value was found to be 60%.

For the molecule `CC(=O)Oc1c(-c2ccc(F)cc2)sc2ncccc12` [R=(CO)CH3, X1=H, X2=p-F, 7-aza-3-acetyloxy-2-(4-fluorophenyl)-benzo[b]thiophene], the “% Inhibition (yeast hyperalgesia)” value is on record as 70%.

Take `COc1ccc(-c2sc3ncccc3c2OC(C)=O)cc1` [R=(CO)CH3, X1=H, X2=p-OCH3]: the “% Inhibition (yeast hyperalgesia)” value is recorded as 10%.

On to `COc1ccc(-c2sc3ncccc3c2O)cc1` [R=H, X1=H, X2=p-OCH3], for which the “% Inhibition (yeast hyperalgesia)” value turned out to be 60%.

The values above are taken from patent US4904672A, “Derivatives of 3-hydroxyazabenzo[b]thiophene useful as 5-lipoxygenase inhibitors” (Merck & Co., Inc., priority 1988, dated 1990).
